Laboratory results as given in patent publication EP3516395B1, “METHOD FOR DETERMINING AFFINITY BETWEEN LIGANDS AND A TARGET” (Plant Advanced Technologies Pat, priority 2016, dated 2018).
pIC50: −log10 of the molar value.

Key:
tyrosinase de champignon = assay: Relative affinity by competitive binding, ultrafiltration and UPLC-MS/UV (Example 1); details: equimolar ligands
Protocol: Une solution de travail de tyrosinase de champignon à 1.25 mg/mL est préparée en dissolvant de la poudre de l'enzyme lyophilisée dans 50 mM d'acétate d'ammonium, avec un pH de 7.0. L'échantillon est préparé en utilisant l'un des solvants suivants : des glycols, DMSO (diméthylsulfoxide), l'éthanol, pur ou en solution dans l'eau. La concentration dans l'échantillon des ligands initiaux est équimolaire et doit être dans la gamme de 0,75 à 1 mM. Les ligands choisis étaient des inhibiteurs connus de la tyrosinase isolés depuis des racines de murier noir (Morus nigra) : la moracénine A, moracénine B et la kuwanone C. Un échantillon de référence est préparé également en diluant l'échantillon de 10 à 20 fois dans une solution d'eau et d'un quart de volume d'acétonitrile.
• 1. Étape de préconditionnement - Des puits à membrane filtrante sont pré-conditionnées avec un volume de 500 µl d'une solution à 85% d'acétate d'ammonium et 15% d'éthanol qui est passé à travers la membrane avec une centrifugation de 14000 g pendant 60 secondes. • 2. Étape de liaison - La préparation de tyrosinase (1.25 mg/mL, 75 µL) est mélangée avec 5 µl de l'échantillon dans un tube d'Eppendorf en plastique, puis est incubée pendant 5 min. Dans ce mélange, on a 9,16 µM de tyrosinase et une gamme de 46,88 µM à 62,5 µM de ligands (moracénine A, moracénine B et kuwanone C) soit un ratio ligands/cible allant de 5,12 à 6,83. • 3. Étape de lavage - le mélange de l'enzyme et de l'échantillon est déposé dans un puits préconditionné à l'étape de préconditionnement, puis centrifugé à 14000 g jusqu'à l'élimination de l'essentiel du solvant. Les complexes enzyme-ligands restent à la surface de la membrane du filtre puis sont à nouveau suspendu dans un volume de 100 µL de la même solution à 85% d'acétate d'ammonium et 15% d'éthanol et centrifugé à 14000 g jusqu'à élimination du solvant. Cette procédure est répétée trois fois et élimine tous les composés qui ne sont pas liés à l'enzyme. • 4. Étape de séparation - Les complexes enzyme-ligands retenus dans le filtre sont à nouveau suspendus dans un volume de 10 µL d'eau ultra-pure, puis sont mélangés avec un volume de 40 µL d'acétonitrile pour dénaturer et précipiter l'enzyme et, en même temps libérer les ligands. Le mélange est centrifugé à 21000 g pendant 10 min pour séparer le précipité du surnageant. • 5. Étape d'analyse - Ledit surnageant formant la solution traitée est analysé par chromatographie en phase liquide couplée à une spectrométrie de masse, connue également par l'acronyme UPLC-MS. L'échantillon de référence est analysé également de la même manière, en utilisant les mêmes conditions d'analyse. Les affinités relatives sont calculées selon la méthode décrite ci-après. De préférence, l'échantillon de référence et la solution traitée sont analysés séquentiellement pour éliminer des dispersions dues aux réglages de l'appareillage.
Une analyse par chromatographie en phase liquide fournit un chromatogramme tel que montré par les figures 1 et 2. Le chromatogramme représente une intensité de signal en fonction du temps de rétention dans une colonne. Le signal présente différents pics d'intensité variable. Chaque pic est associé à l'un des ligands présent dans l'échantillon et la solution traitée. • 1. Normalisation de l'intensité du signal analytique pour les ligands dans l'échantillon de référence. Pour chaque chaque ligand CEi dans l'échantillon de référence, on établit des facteurs de normalisation NFeq dudit ligand CEi par comparaison au ligand de référence REF, selon l'équation suivante : NFeq,CEi = (ISeq,CEi)/(ISeq,REF) [formula] où : • NF est un facteur de normalisation; • ISeq,CEi est l'intensité du signal analytique pour le ligand CEi dans l'échantillon; • ISeq,REF est l'intensité du signal analytique pour le ligand de référence REF dans l'échantillon. L'intensité peut être choisie parmi l'aire du pic ou la valeur maximale du pic. Le facteur de normalisation du ligand de référence vaut toujours 1. • 2. […]

tyrosinase = details: literature values, 50% reduction of enzyme activity; cited from earlier work

Substance: moracénine A
- Facteur de normalisation, solution traitée (tyrosinase de champignon; NFTB, peak area UV 270 nm relative to reference ligand moracénine B): 1,29
- Affinités relatives (tyrosinase de champignon; RA = NFTB/NFeq, reference ligand moracénine B): 1,50
- pIC50 (tyrosinase): 4.99
